Test results reported in patent US8822444B2, “Hepatitis C virus inhibitors” (Bristol-Myers Squibb Company, priority 2009, dated 2014).

Tested on: HCV 1b genotype
Experiment: HCV Replicon assay
Format: cell-based
Details: HCV 1b genotype replicon; read-out: 1b EC50 Range
Method: An HCV Replicon assay was utilized in the present disclosure, and was prepared, conducted and validated as described in commonly owned PCT/US2006/022197 and in O'Boyle et. al. Antimicrob Agents Chemother. 2005 April; 49(4):1346-53. Assay methods incorporating luciferase reporters have also been used as described (Apath.com).
HCV-neo replicon cells and replicon cells containing mutations in the NS5A region were used to test the currently described family of compounds. The compounds were determined to have more than 10-fold less inhibitory activity on cells containing mutations than wild-type cells. Thus, the compounds of the present disclosure can be effective in inhibiting the function of the HCV NS5A protein and are understood to be as effective in combinations as previously described in application PCT/US2006/022197 and commonly owned WO/04014852. Further, the compounds of the present disclosure can be effective against the HCV 1b genotype. It should also be understood that the compounds of the present disclosure can inhibit multiple genotypes of HCV. […] In one embodiment, compounds of the present disclosure are inhibitory versus 1a, 1b, 2a, 2b, 3a, 4a, and 5a genotypes.

For COC(=O)N[C@H](C(=O)N1CCC[C@H]1c1nc(-c2ccc(C3CCC(c4c[nH]c([C@@H]5CCCN5C(=O)[C@@H](NC(=O)OC)C(C)C)n4)CC3)cc2)c[nH]1)C(C)C (stereo partly drawn) [QC-17, methyl ((1S)-1-(((2S)-2-(4-(4-(4-(2-((2S)-1-((2S)-2-((methoxycarbonyl)amino)-3-methylbutanoyl)pyrrolidin-2-yl)-1H-imidazol-4-yl)phenyl)cyclohexyl)-1H-imidazol-2-yl)pyrrolidin-1-yl)carbonyl)-2-methylpropyl)carbamate], the EC50 was 2 to 4.57 nM.
